Test results from PubChem BioAssay (NCI).
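Values below derive from 48-hour exposures of cells grown in 96-well plates, with endpoints linearly interpolated between the two concentrations bracketing the appropriate inhibition level. The concentration for 50% growth inhibition is given as GI50. TGI: concentration producing complete growth inhibition.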

Experiments:
Experiment in all cases: NCI anticancer screen, dose series, 48 h
RXF 393 renal = tested on: RXF 393 renal
HT29 colon = tested on: HT29 colon
CAKI-1 renal = tested on: CAKI-1 renal
SF-539 CNS = tested on: SF-539 CNS
TK-10 renal = tested on: TK-10 renal
T-47D breast = tested on: T-47D breast
HS 578T breast = tested on: HS 578T breast
CCRF-CEM leukemia = tested on: CCRF-CEM leukemia
UO-31 renal = tested on: UO-31 renal
COLO 205 colon = tested on: COLO 205 colon
OVCAR-4 ovarian = tested on: OVCAR-4 ovarian
HCC-2998 colon = tested on: HCC-2998 colon
SK-MEL-5 melanoma = tested on: SK-MEL-5 melanoma
MDA-MB-435 = tested on: MDA-MB-435
MCF7 breast = tested on: MCF7 breast
HOP-92 NSCLC = tested on: HOP-92 NSCLC
SW-620 colon = tested on: SW-620 colon
SK-MEL-28 melanoma = tested on: SK-MEL-28 melanoma
786-0 renal = tested on: 786-0 renal
HCT-116 colon = tested on: HCT-116 colon
BT-549 breast = tested on: BT-549 breast
OVCAR-3 ovarian = tested on: OVCAR-3 ovarian
MOLT-4 leukemia = tested on: MOLT-4 leukemia
U251 CNS = tested on: U251 CNS
SN12C renal = tested on: SN12C renal
OVCAR-8 ovarian = tested on: OVCAR-8 ovarian
OVCAR-5 ovarian = tested on: OVCAR-5 ovarian
NCI/ADR-RES ovarian = tested on: NCI/ADR-RES ovarian
SF-268 CNS = tested on: SF-268 CNS
RPMI-8226 leukemia = tested on: RPMI-8226 leukemia
UACC-62 melanoma = tested on: UACC-62 melanoma
A549 NSCLC = tested on: A549 NSCLC
SK-OV-3 ovarian = tested on: SK-OV-3 ovarian
M14 melanoma = tested on: M14 melanoma
IGROV1 ovarian = tested on: IGROV1 ovarian
MDA-MB-231 breast = tested on: MDA-MB-231 breast
UACC-257 melanoma = tested on: UACC-257 melanoma
DU-145 prostate = tested on: DU-145 prostate
SNB-19 CNS = tested on: SNB-19 CNS
KM12 colon = tested on: KM12 colon
LOX IMVI melanoma = tested on: LOX IMVI melanoma
ACHN renal = tested on: ACHN renal
NCI-H522 lung = tested on: NCI-H522 lung
HCT-15 colon = tested on: HCT-15 colon
EKVX NSCLC = tested on: EKVX NSCLC
SNB-75 CNS = tested on: SNB-75 CNS
HOP-62 NSCLC = tested on: HOP-62 NSCLC
PC-3 prostate = tested on: PC-3 prostate
SK-MEL-2 melanoma = tested on: SK-MEL-2 melanoma
NCI-H460 lung = tested on: NCI-H460 lung
NCI-H23 lung = tested on: NCI-H23 lung
SF-295 CNS = tested on: SF-295 CNS
K-562 leukemia = tested on: K-562 leukemia
HL-60(TB) leukemia = tested on: HL-60(TB) leukemia
A498 renal = tested on: A498 renal
MALME-3M melanoma = tested on: MALME-3M melanoma

Compound `O=C(Cc1csc2nc(-c3ccc(Br)cc3)cn12)N/N=C/c1ccccc1` has a GI50 (RXF 393 renal) of 14.5 µM, a TGI (RXF 393 renal) of 38.8 µM and a GI50 (HT29 colon) of 44 µM. For the same compound, the TGI (HT29 colon) was greater than 100 µM, the GI50 (CAKI-1 renal) was 30.3 µM and the TGI (CAKI-1 renal) was 82.2 µM. The GI50 (SF-539 CNS) was 16.2 µM, the TGI (SF-539 CNS) was 39.4 µM and the GI50 (TK-10 renal) was 14.1 µM. It also gave a TGI (TK-10 renal) of 42.1 µM, a GI50 (T-47D breast) of 36.9 µM and a TGI (T-47D breast) greater than 100 µM. For the same compound, the GI50 (HS 578T breast) was 16.4 µM, the TGI (HS 578T breast) was 51.1 µM and the GI50 (CCRF-CEM leukemia) was 17.3 µM. It also gave a TGI (CCRF-CEM leukemia) greater than 100 µM, a GI50 (UO-31 renal) of 58.2 µM and a TGI (UO-31 renal) greater than 100 µM. The GI50 (COLO 205 colon) was 66.1 µM, the TGI (COLO 205 colon) was greater than 100 µM and the GI50 (OVCAR-4 ovarian) was 47.1 µM. It also gave a TGI (OVCAR-4 ovarian) greater than 100 µM, a GI50 (HCC-2998 colon) of 13.2 µM and a TGI (HCC-2998 colon) of 49.3 µM. For the same compound, the GI50 (SK-MEL-5 melanoma) was 5.66 µM, the TGI (SK-MEL-5 melanoma) was 26.9 µM and the GI50 (MDA-MB-435) was 12.1 µM. It also gave a TGI (MDA-MB-435) of 51.8 µM, a GI50 (MCF7 breast) of 75.9 µM and a TGI (MCF7 breast) greater than 100 µM. It also gave a GI50 (HOP-92 NSCLC) of 12.2 µM, a TGI (HOP-92 NSCLC) of 37 µM and a GI50 (SW-620 colon) of 18.8 µM. For the same compound, the TGI (SW-620 colon) was 62.8 µM, the GI50 (SK-MEL-28 melanoma) was greater than 100 µM and the TGI (SK-MEL-28 melanoma) was greater than 100 µM. The GI50 (786-0 renal) was 27.7 µM, the TGI (786-0 renal) was greater than 100 µM and the GI50 (HCT-116 colon) was 9.32 µM. The TGI (HCT-116 colon) was 21.2 µM, the GI50 (BT-549 breast) was 13 µM and the TGI (BT-549 breast) was 49.1 µM. It also gave a GI50 (OVCAR-3 ovarian) of 24.1 µM, a TGI (OVCAR-3 ovarian) of 46.3 µM and a GI50 (MOLT-4 leukemia) of 6.69 µM. It also gave a TGI (MOLT-4 leukemia) of 37 µM, a GI50 (U251 CNS) of 12.7 µM and a TGI (U251 CNS) of 32.1 µM. The GI50 (SN12C renal) was 13.1 µM, the TGI (SN12C renal) was 39.9 µM and the GI50 (OVCAR-8 ovarian) was 2.36 µM. The TGI (OVCAR-8 ovarian) was 20.5 µM, the GI50 (OVCAR-5 ovarian) was 30.7 µM and the TGI (OVCAR-5 ovarian) was greater than 100 µM. It also gave a GI50 (NCI/ADR-RES ovarian) of 13.6 µM, a TGI (NCI/ADR-RES ovarian) of 67.6 µM and a GI50 (SF-268 CNS) greater than 100 µM. It also gave a TGI (SF-268 CNS) greater than 100 µM, a GI50 (RPMI-8226 leukemia) of 7.38 µM and a TGI (RPMI-8226 leukemia) greater than 100 µM. The GI50 (UACC-62 melanoma) was 11.6 µM, the TGI (UACC-62 melanoma) was 28.2 µM and the GI50 (A549 NSCLC) was 13.5 µM. The TGI (A549 NSCLC) was 40.9 µM, the GI50 (SK-OV-3 ovarian) was 65.7 µM and the TGI (SK-OV-3 ovarian) was greater than 100 µM. It also gave a GI50 (M14 melanoma) of 20.9 µM, a TGI (M14 melanoma) greater than 100 µM and a GI50 (IGROV1 ovarian) of 11.2 µM. The TGI (IGROV1 ovarian) was 32.7 µM, the GI50 (MDA-MB-231 breast) was 13 µM and the TGI (MDA-MB-231 breast) was 58.2 µM. It also gave a GI50 (UACC-257 melanoma) of 6.21 µM, a TGI (UACC-257 melanoma) of 32 µM and a GI50 (DU-145 prostate) of 14.6 µM. The TGI (DU-145 prostate) was 45.1 µM, the GI50 (SNB-19 CNS) was 44.1 µM and the TGI (SNB-19 CNS) was greater than 100 µM. It also gave a GI50 (KM12 colon) of 26.1 µM, a TGI (KM12 colon) greater than 100 µM and a GI50 (LOX IMVI melanoma) of 12.2 µM. For the same compound, the TGI (LOX IMVI melanoma) was 90.8 µM, the GI50 (ACHN renal) was 10.8 µM and the TGI (ACHN renal) was 25.6 µM. For the same compound, the GI50 (NCI-H522 lung) was 14.2 µM, the TGI (NCI-H522 lung) was 60.8 µM and the GI50 (HCT-15 colon) was 16.3 µM. The TGI (HCT-15 colon) was greater than 100 µM, the GI50 (EKVX NSCLC) was 6.95 µM and the TGI (EKVX NSCLC) was 52.5 µM. It also gave a GI50 (SNB-75 CNS) of 31.8 µM, a TGI (SNB-75 CNS) of 89.2 µM and a GI50 (HOP-62 NSCLC) of 15.3 µM. It also gave a TGI (HOP-62 NSCLC) of 39.8 µM, a GI50 (PC-3 prostate) of 20.2 µM and a TGI (PC-3 prostate) greater than 100 µM. It also gave a GI50 (SK-MEL-2 melanoma) of 33 µM, a TGI (SK-MEL-2 melanoma) greater than 100 µM and a GI50 (NCI-H460 lung) of 53 µM. It also gave a TGI (NCI-H460 lung) greater than 100 µM, a GI50 (NCI-H23 lung) of 12.6 µM and a TGI (NCI-H23 lung) of 61.4 µM. For the same compound, the GI50 (SF-295 CNS) was 12.1 µM and the TGI (SF-295 CNS) was 37.4 µM.
`COc1cc(Nc2c(C#N)[n+]([O-])c3ccccc3[n+]2[O-])cc(OC)c1OC` showed a TGI (RXF 393 renal) greater than 100 µM, a TGI (HT29 colon) greater than 100 µM and a TGI (CAKI-1 renal) greater than 100 µM. For the same compound, the TGI (SF-539 CNS) was greater than 100 µM, the TGI (TK-10 renal) was greater than 100 µM and the TGI (T-47D breast) was 48.2 µM. The TGI (HS 578T breast) was greater than 100 µM, the TGI (K-562 leukemia) was greater than 100 µM and the TGI (CCRF-CEM leukemia) was greater than 100 µM. The TGI (UO-31 renal) was greater than 100 µM, the TGI (COLO 205 colon) was 28.7 µM and the TGI (OVCAR-4 ovarian) was greater than 100 µM. The TGI (HCC-2998 colon) was 86 µM, the TGI (SK-MEL-5 melanoma) was 54.1 µM and the TGI (MDA-MB-435) was greater than 100 µM. For the same compound, the TGI (MCF7 breast) was 59 µM, the TGI (HOP-92 NSCLC) was greater than 100 µM and the TGI (SW-620 colon) was greater than 100 µM. It also gave a TGI (HL-60(TB) leukemia) greater than 100 µM, a TGI (SK-MEL-28 melanoma) greater than 100 µM and a TGI (786-0 renal) of 49.8 µM. It also gave a TGI (HCT-116 colon) of 29.9 µM, a TGI (BT-549 breast) greater than 100 µM and a TGI (OVCAR-3 ovarian) greater than 100 µM. The TGI (MOLT-4 leukemia) was greater than 100 µM, the TGI (U251 CNS) was greater than 100 µM and the TGI (SN12C renal) was greater than 100 µM. The TGI (OVCAR-8 ovarian) was greater than 100 µM, the TGI (A498 renal) was greater than 100 µM and the TGI (OVCAR-5 ovarian) was 54.7 µM. The TGI (NCI/ADR-RES ovarian) was 51 µM, the TGI (SF-268 CNS) was greater than 100 µM and the TGI (RPMI-8226 leukemia) was greater than 100 µM. It also gave a TGI (A549 NSCLC) greater than 100 µM, a TGI (SK-OV-3 ovarian) of 67.4 µM and a TGI (M14 melanoma) of 36 µM. It also gave a TGI (UACC-257 melanoma) of 67.2 µM, a TGI (DU-145 prostate) greater than 100 µM and a TGI (SNB-19 CNS) greater than 100 µM. For the same compound, the TGI (KM12 colon) was greater than 100 µM, the TGI (MALME-3M melanoma) was greater than 100 µM and the TGI (LOX IMVI melanoma) was greater than 100 µM. For the same compound, the TGI (ACHN renal) was greater than 100 µM, the TGI (NCI-H522 lung) was greater than 100 µM and the TGI (HCT-15 colon) was greater than 100 µM. It also gave a TGI (EKVX NSCLC) greater than 100 µM, a TGI (SNB-75 CNS) greater than 100 µM and a TGI (HOP-62 NSCLC) greater than 100 µM. The TGI (PC-3 prostate) was greater than 100 µM, the TGI (SK-MEL-2 melanoma) was greater than 100 µM and the TGI (NCI-H460 lung) was greater than 100 µM. For the same compound, the TGI (NCI-H23 lung) was 38.2 µM and the TGI (SF-295 CNS) was greater than 100 µM.
